Laboratory results taken from US12234232B2, “Aromatic heterocyclic compound with kinase inhibitory activity” (SHANGHAI ENNOVABIO PHARMACEUTICALS CO., LTD., priority 2018, dated 2025).

Experiments:
JAK2 [1] = target: T1, JAK2 (Homo sapiens, UniProt O60674); assay: In vitro JAK2 kinase activity assay (HTRF kinEASE TK); assay type: biochemical; set-up: purchased Carna Biosciences; settings: 2.7 μM ATP, 25 minutes, room temperature; read-out: IC50 JAK2 (enzyme activity assay)
Protocol: (§1) Recombinant human JAK1 protein was purchased from Thermo Fisher. JAK2 and JAK3 proteins were purchased from Carna Biosciences. HTRF kinEASE TK kit was purchased from Cisbio Bioassays. BioTek microplate reader Synergy Neo 2 was used to read the plate.
(§2) The test compounds were of 4-fold serial dilution, and the final concentration ranged from 10 μM to 0.04 nM in duplicates for each concentration. The concentration of DMSO in the reaction system was 1%.
(§3) The reaction included 0.001 ng/μl JAK 2 protein kinase, 1 μM TK Substrate-biotin peptide substrate, 2.7 μM ATP, 1× enzymatic buffer, 5 mM MgCl2, and 1 mM DTT. The detection plate was White Proxiplate 384-Plus plate (PerkinElmer), and the mixture (10 μl) was reacted at room temperature for 25 minutes.
(§4) Reaction detection: 10 μl of detection reagent was added to the reaction plate containing final concentration of 0.125 μM of SA-XL665 and 5 μl 1×TK-Antibody. The mixture was incubated overnight at room temperature. The plate was read using Synergy Neo 2.
(§5) Data analysis: 665/620 Ratio was converted into inhibition rate (%) through the following formula: inhibition rate (%)=(Ratiomax−Ratiotest)/(Ratiomax−Ratiomin)×100%. Ratiomax is a positive control without detection compound, Ratiomin is a negative control without detection compound and kinase, Ratiotest is the detection value of each concentration of different compounds. 4 parameter curve fitting was performed to measure the IC50 (nM) values. The details are shown in, Table 1.

JAK2 [2] = target: T1, JAK2; assay: Cellular JAK2 activity assay: EPO-stimulated STAT5 phosphorylation in TF-1 cells; assay type: cell-based; set-up: endogenous in cells; host or cells: TF-1 cells (ATCC); settings: EPO (10 U/mL), pSTAT5, read-out: IC50 Cell JAK2
Protocol: (§6) In TF-1 cells, IL-6 stimulation leads to phosphorylation of STAT3 through JAK1, while EPO stimulants phosphorylation of STAT5 via JAK2.
(§7) TF-1 cells were obtained from American Type Culture Collection (ATCC). TF-1 cells were starved overnight (cell density was 100,000 cells/well at plating) in OptiMEM medium without phenol red containing 0.5% fetal bovine serum (FBS), 0.1 mM non-essential amino acids (NEAA), 1 mM sodium pyruvate at 37° C. The compound was serially diluted in DMSO, added to TF-1 cells and incubated at 37° C. for 20 minutes. The final concentration of DMSO was 0.2%. Then, human recombinant cytokine IL-6 (30 ng/mL) or EPO (10 U/mL) was added to the wells containing TF-1 cells. After the cell plate was incubated for 30 minutes, cells were lysed, and the phosphorylation of STAT3 (IL-6) or STAT5 (EPO) in the cell lysate (pSTAT3/total STAT3 Elisa Kit: CST #7300C/CST #7305C; pSTAT5 and total STAT5 Elisa Kit: Abcam #ab205715) was measured. The IC50 value was determined as the concentration of the compound required to inhibit STAT phosphorylation by 50% relative to the measured DMSO control.

JAK1 [3] = target: T2, JAK1 (Homo sapiens, UniProt P23458); assay: In vitro JAK1 kinase activity assay (HTRF kinEASE TK); assay type: biochemical; set-up: purchased Thermo Fisher; settings: 1.1 μM ATP, 60 minutes, room temperature; read-out: IC50 JAK1 (enzyme activity assay)
T2 sequence (P23458 whole entry): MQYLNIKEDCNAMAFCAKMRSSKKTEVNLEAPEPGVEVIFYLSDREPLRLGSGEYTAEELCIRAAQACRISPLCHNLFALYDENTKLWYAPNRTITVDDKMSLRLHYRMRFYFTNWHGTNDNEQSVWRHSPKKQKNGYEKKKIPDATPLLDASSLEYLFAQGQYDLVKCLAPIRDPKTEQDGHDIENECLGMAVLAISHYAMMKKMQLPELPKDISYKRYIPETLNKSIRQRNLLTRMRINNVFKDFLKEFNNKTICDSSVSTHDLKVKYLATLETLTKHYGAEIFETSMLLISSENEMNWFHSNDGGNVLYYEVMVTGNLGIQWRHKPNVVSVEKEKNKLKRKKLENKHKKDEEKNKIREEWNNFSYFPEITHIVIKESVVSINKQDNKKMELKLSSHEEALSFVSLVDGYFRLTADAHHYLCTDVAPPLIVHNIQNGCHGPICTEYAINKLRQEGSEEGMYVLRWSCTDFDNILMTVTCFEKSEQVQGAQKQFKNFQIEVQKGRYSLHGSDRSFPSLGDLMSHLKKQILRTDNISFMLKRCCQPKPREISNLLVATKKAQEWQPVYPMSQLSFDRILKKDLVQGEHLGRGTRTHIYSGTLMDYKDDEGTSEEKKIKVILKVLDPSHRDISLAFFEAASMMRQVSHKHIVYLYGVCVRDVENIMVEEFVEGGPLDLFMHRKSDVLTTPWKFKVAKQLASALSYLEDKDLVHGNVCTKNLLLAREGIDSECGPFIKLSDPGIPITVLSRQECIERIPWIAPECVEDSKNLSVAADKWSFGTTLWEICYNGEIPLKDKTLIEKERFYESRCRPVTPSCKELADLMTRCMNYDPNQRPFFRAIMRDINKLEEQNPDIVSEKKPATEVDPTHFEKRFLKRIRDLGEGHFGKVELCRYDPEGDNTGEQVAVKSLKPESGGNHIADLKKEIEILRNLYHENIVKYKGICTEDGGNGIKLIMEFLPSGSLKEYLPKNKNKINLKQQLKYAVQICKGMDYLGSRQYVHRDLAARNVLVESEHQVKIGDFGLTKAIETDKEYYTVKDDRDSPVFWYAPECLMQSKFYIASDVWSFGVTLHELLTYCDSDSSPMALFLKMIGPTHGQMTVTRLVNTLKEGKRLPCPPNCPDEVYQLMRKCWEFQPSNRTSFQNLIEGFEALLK
Protocol: as §1, §2
as §3, with “0.5” for “0.001”, “1” for “2”, “1.1” for “2.7”, “MgCl2,” for “MgCl2, and”, “MnCl2, 1 mM DTT, and 2.5 nM SEB.” for “DTT.”, “60” for “25”
as §4, §5

JAK1 [4] = target: T2, JAK1; assay: Cellular JAK1 activity assay: IL-6-stimulated STAT3 phosphorylation in TF-1 cells; assay type: cell-based; set-up: endogenous in cells; host or cells: TF-1 cells (ATCC); settings: IL-6 (30 ng/mL), pSTAT3, read-out: IC50 Cell JAK1
Protocol: as §6, §7

JAK3 protein = target: T3, JAK3 protein (Homo sapiens, UniProt P52333); assay: In vitro JAK3 kinase activity assay (HTRF kinEASE TK); assay type: biochemical; settings: 0.75 μM ATP, 25 minutes, room temperature; read-out: IC50 JAK3 (enzyme activity assay)
T3 construct: purchased Carna Biosciences
T3 sequence (P52333 1-1124): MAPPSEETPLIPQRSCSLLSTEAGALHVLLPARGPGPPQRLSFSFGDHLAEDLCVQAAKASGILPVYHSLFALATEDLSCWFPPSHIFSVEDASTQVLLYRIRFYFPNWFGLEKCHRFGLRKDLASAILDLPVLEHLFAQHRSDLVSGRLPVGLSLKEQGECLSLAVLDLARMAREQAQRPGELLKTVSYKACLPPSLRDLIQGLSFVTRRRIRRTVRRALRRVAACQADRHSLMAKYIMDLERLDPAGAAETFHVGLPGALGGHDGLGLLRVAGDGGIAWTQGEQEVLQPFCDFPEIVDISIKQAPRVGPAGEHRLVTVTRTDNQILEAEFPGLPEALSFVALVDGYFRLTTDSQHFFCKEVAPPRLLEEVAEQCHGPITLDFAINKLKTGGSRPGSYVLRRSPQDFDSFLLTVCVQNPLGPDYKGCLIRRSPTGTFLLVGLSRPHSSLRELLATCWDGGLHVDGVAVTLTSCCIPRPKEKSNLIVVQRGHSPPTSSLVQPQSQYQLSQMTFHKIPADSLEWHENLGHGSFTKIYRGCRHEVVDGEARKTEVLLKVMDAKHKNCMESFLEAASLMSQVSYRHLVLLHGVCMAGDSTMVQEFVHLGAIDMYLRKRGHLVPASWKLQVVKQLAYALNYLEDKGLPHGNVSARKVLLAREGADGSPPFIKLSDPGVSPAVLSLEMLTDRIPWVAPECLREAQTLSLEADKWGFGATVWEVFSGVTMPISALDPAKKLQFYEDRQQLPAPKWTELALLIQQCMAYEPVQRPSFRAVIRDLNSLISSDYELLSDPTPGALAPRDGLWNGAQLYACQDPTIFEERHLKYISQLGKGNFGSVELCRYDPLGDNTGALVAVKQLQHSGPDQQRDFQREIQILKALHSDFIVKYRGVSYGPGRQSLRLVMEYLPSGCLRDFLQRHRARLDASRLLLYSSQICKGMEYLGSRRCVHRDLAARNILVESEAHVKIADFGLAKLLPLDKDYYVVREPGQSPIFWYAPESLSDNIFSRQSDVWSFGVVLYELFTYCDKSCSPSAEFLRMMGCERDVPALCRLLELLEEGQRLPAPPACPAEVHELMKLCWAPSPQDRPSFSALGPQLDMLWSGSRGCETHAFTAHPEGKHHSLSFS
Protocol: as §1, §2
as §3, with “included […]” for “included 0.001 ng/μl”, “JAK 3” for “JAK 2”, “substrate, 0.75” for “substrate, 2.7”
as §4, §5

T1 sequence (O60674 whole entry): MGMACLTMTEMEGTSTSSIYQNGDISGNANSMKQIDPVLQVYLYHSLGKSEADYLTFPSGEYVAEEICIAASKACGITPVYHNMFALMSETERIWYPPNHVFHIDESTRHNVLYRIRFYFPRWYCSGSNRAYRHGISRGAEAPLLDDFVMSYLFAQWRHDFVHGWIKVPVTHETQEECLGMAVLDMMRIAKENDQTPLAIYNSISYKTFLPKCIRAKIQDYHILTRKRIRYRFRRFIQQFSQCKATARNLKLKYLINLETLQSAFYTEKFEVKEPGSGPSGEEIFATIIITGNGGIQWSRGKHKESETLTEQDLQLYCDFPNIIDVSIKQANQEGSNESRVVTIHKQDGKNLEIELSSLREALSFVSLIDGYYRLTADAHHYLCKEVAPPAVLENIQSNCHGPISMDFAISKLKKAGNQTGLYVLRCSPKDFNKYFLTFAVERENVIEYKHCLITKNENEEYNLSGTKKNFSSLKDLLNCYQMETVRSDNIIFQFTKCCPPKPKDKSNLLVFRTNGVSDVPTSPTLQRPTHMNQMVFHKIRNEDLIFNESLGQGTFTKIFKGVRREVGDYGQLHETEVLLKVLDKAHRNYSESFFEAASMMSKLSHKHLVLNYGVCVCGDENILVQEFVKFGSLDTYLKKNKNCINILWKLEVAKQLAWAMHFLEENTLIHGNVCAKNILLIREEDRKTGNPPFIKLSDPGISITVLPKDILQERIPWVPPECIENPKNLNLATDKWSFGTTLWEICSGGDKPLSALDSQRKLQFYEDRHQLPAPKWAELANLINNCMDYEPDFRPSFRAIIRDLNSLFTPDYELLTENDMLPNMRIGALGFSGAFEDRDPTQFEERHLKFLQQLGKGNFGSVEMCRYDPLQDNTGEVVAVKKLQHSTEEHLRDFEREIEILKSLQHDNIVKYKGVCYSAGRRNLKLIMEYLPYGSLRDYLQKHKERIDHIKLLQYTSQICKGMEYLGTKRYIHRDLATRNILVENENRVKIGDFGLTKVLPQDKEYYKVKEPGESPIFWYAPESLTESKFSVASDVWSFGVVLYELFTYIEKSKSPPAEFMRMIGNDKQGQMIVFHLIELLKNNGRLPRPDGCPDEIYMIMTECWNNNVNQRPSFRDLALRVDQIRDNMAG

| SMILES | IC50 (JAK2 [1]) [µM] | IC50 (JAK2 [2]) [µM] | IC50 (JAK1 [3]) [µM] | IC50 (JAK1 [4]) [µM] | IC50 (JAK3 protein) [µM] |
| --- | --- | --- | --- | --- | --- |
| CCC(C(=O)Nc1nccc2c(-c3nc(Nc4cn(C)nc4OC)ncc3C)c[nH]c12)N1CCN(C)CC1 (stereo not shown) [Example 2, N-(3-(2-((3-Methoxy-1-methyl-1H-pyrazol-4-yl)amino)-5-methylpyrimidin-4-yl)-1H-pyrrolo[2,3-c]pyridin-7-yl)-2-(4-methylpiperazin-1-yl)butanamide] | < 0.1 | < 10 | 0.005 to 0.05 | < 0.1 | < 0.5 |
| CC[C@@H](C(=O)Nc1nccc2c(-c3nc(Nc4cn(C)nc4OC)ncc3C)c[nH]c12)N1CCN(C)CC1 [Example 3, (S)—N-(3-(2-((3-Methoxy-1-methyl-1H-pyrazol-4-yl)amino)-5-methylpyrimidin-4-yl)-1H-pyrrolo[2,3-c]pyridin-7-yl)-2-(4-methylpiperazin-1-yl)butanamide] | < 0.1 | < 10 | 0.005 to 0.05 | < 0.1 | < 0.5 |
| COc1nn(C)cc1Nc1ncc(C)c(-c2c[nH]c3c(Nc4cn(C)nc4OC)nccc23)n1 [Example 5, N-(3-Methoxy-1-methyl-1H-pyrazol-4-yl)-3-(2-((3-methoxy-1-methyl-1H-pyrazole-4-yl)amino)-5-methylpyrimidin-4-yl)-1H-pyrrolo[2,3-c]pyridin-7-amine] | < 0.1 | > 20 | 0.005 to 0.05 | 0.1 to 1 | < 0.5 |
| COc1nn(C)cc1Nc1ncc(C)c(-c2c[nH]c3c(NC(=O)C(C(C)C)N4CCN(C)CC4)nccc23)n1 (stereo not shown) [Example 6] | < 0.1 | < 10 | 0.005 to 0.05 | 0.1 to 1 | < 0.5 |
| COc1nn(C)cc1Nc1ncc(C)c(-c2c[nH]c3c(NC(=O)[C@@H](C)N4CCOCC4)nccc23)n1 [Example 7] | < 0.1 | 10 to 20 | 0.005 to 0.05 | 0.1 to 1 | < 0.5 |
| CCC(C(=O)Nc1nccc2c(-c3nc(Nc4cn(C)nc4OC)ncc3C)c[nH]c12)N1CCC(O)C1 (stereo not shown) [Example 8] | < 0.1 | > 20 | 0.005 to 0.05 | 0.1 to 1 | < 0.5 |
| CCC(C(=O)Nc1nccc2c(-c3nc(Nc4cn(C)nc4OC)ncc3C)c[nH]c12)N1CCC(N(C)C)CC1 (stereo not shown) [Example 9] | < 0.1 | < 10 | 0.005 to 0.05 | 0.1 to 1 | < 0.5 |
| COc1nn(C)cc1Nc1ncc(C)c(-c2c[nH]c3c(NC(N)=O)nccc23)n1 [Example 12] | < 0.1 | < 10 | < 0.005 | < 0.1 | < 0.5 |

Second part, the compound after the results:

| IC50 (JAK2 [1]) [µM] | IC50 (JAK2 [2]) [µM] | IC50 (JAK1 [3]) [µM] | IC50 (JAK1 [4]) [µM] | IC50 (JAK3 protein) [µM] | SMILES |
| --- | --- | --- | --- | --- | --- |
| 0.1 to 10 | > 20 | 0.005 to 0.05 | > 1 | 0.5 to 10 | CCC(C(=O)Nc1nccc2c(-c3nc(Nc4cn(C)nc4OC)ncc3C)c[nH]c12)N1CC(C)N(C)C(C)C1 (stereo not shown) [Example 10] |
| 0.1 to 10 | > 20 | < 0.005 | 0.1 to 1 | 0.5 to 10 | CCC(C(=O)Nc1nccc2c(-c3nc(Nc4cccc(S(C)(=O)=O)c4F)ncc3C)c[nH]c12)N1CCN(C)CC1 (stereo not shown) [Example 19, N-(3-(2-((2-Fluoro-3-(methylsulfonyl)phenyl)amino)-5-methylpyrimidin-4-yl)-1H-pyrrolo[2,3-c]pyridin-7-yl)-2-(4-methylpiperazin-1-yl)butanamide] |
| < 0.1 | < 10 | 0.005 to 0.05 | 0.1 to 1 | 0.5 to 10 | CCC(C(=O)Nc1nccc2c(-c3nc(Nc4cccc(NS(C)(=O)=O)c4F)ncc3C)c[nH]c12)N1CCN(C)CC1 (stereo not shown) [Example 22, N-(3-(2-((2-Fluoro-3-(methylsulfonylamino)phenyl)amino)-5-methylpyrimidin-4-yl)-1H-pyrrolo[2,3-c]pyridin-7-yl)-2-(4-methylpiperazin-1-yl)butanamide] |
| 0.1 to 10 | 10 to 20 | 0.005 to 0.05 | 0.1 to 1 | 0.5 to 10 | CCC(C(=O)Nc1nccc2c(-c3nc(Nc4cccc(S(C)(=O)=O)c4F)ncc3C)c[nH]c12)N1CC2CCC(C1)N2C (stereo not shown) [Example 23, N-(3-(2-((2-Fluoro-3-(methylsulfonyl)phenyl)amino)-5-methylpyrimidin-4-yl)-1H-pyrrolo[2,3-c]pyridin-7-yl)-2-(8-methyl-3,8-diazabicyclo[3.2.1]octane-3-yl)butanamide] |
| 0.1 to 10 | > 20 | 0.005 to 0.05 | 0.1 to 1 | 0.5 to 10 | CCC(C(=O)Nc1nccc2c(-c3nc(Nc4cccc(S(C)(=O)=O)c4F)ncc3C)c[nH]c12)N1CC2(CCN(C)CC2)C1 (stereo not shown) [Example 24, N-(3-(2-((2-Fluoro-3-(methylsulfonyl)phenyl)amino)-5-methylpyrimidin-4-yl)-1H-pyrrolo[2,3-c]pyridin-7-yl)-2-(7-methyl-2,7-diazaspiro[3.5]nonane-2-yl)butanamide] |
| 0.1 to 10 | > 20 | < 0.005 | 0.1 to 1 | 0.5 to 10 | CCC(C(=O)Nc1nccc2c(-c3nc(Nc4cccc(S(C)(=O)=O)c4F)ncc3F)c[nH]c12)N1CCN(C)CC1 (stereo not shown) [Example 27, N-(3-(5-Fluoro-2-((2-fluoro-3-(methylsulfonyl)phenyl)amino)pyrimidin-4-yl)-1H-pyrrolo[2,3-c]pyridin-7-yl)-2-(4-methylpiperazin-1-yl) butanamide] |
